The source of these data is patent publication US20200215537A1, “ULTRASENSITIVE CANTILEVER” (3P SENSE LIMITED, priority 2017, published 2020).

Like-named read-outs stand apart in the source and are kept apart here.

Assay [1] deals with vancomycin susceptible receptor (VSR). The assay can be described thus: Cantilever binding assay, vancomycin against VSR coated cantilevers. How it is done: (§1) In the case of preparation of unpassivated cantilever, SAMs of D-VSR, L-VSR and inert PEG molecules were diluted to a concentration of 1 μM in pure ethanol. The diluted SAMs were individually injected into glass capillary tubes (King Precision Glass, Claremont, Calif., USA) which were arranged on the functionalization stage. The cantilevers were then functionalized by incubating them with individual SAMS inside the glass capillaries for 20 min. Care was taken to ensure that the hinge region was entirely covered with the SAM solution in order to ensure mechanical connectivity between the transduction arrays and hinge region.
The finding that a signal response is detectable even when the assembling of array networks is confined to only 30 μm of the geometrical width of the region covered while the corresponding geometeric length is fixed at 500 μm of the cantilever, prompted us to examine whether changing the dimensions of the cantilever itself whilst maintaining the mechanical connectivity of surface receptors has any impact on the signal sensitivity and reproducibility. This is because the dimensions of a sensing element can greatly impact on the signal response in several ways (1) the threshold size of the ligand capture cross-section area that is able to generate mechanical signaling decreases when the size of the sensing element is reduced, (2) the biomechanical force impacting on the sensing element is more pronounced for a narrow sensing element, and (3) the narrower the sensing element, the less rigid it is and the more responsive it will be to molecular forces. Further, continuous mechanical connectivity can be effected by the edging effects at the perimeter of the sensor itself and its impact would be more pronounced for narrower sensing elements (FIG. 1b). The effect on signal response by reducing the conventional cantilever width from 100 μm to 70 μm whilst keeping the length and thickness at 500 μm and 1 μm, respectively, was examined. These dimensions were chosen because they enable the narrowed cantilever to be used with standard instruments without the need for redesigning equipment. In addition, at this width the cantilever is less affected by the capillary forces and static charges which may render careful alignment of the scanning laser at the free-end more difficult. For this experiment vancomycin (Van) as the reporter molecule and vancomycin-susceptible receptor (or VSR)^21 as its target were used. Van is the Food and Drug Administration (FDA)-approved drug of last resort for clinical treatment of MRSA and clostridium difficile infections^38,39. This particular system was chosen because it gives relatively large signals and it has been previously shown that the quantitative Van-VSR binding constants can be measured^21 and so it can be used to redefine the limit of recognition of biologically relevant systems. The entire surface of the cantilever including the hinge region was coated with VSR using glass capillares (See Cantilever functionalization with surface target molecules). Artefacts that produce non-specific signals were overcome by performing differential measurements where the reference mercaptoundecyl tri(ethylene glycol) thiol (PEG)-coated cantilever signals was subtracted from the VSR signals. […] The signal response obtained from all three cantilevers was highly consistent and almost identical over a 60 min time period. Moreover, the compressive signal response was relatively high averaging −400±30 pN with a signal-to-noise ratio (SNR) of 7. […] Next, the impact of different concentrations on signal response initially fixed at 20, 50, 500 and 1000 nM (FIG. 4b-d) was examined. […] The thermodynamic pseudo-equilibrium signal response was attained at 60 and 50 min for 20 nM and 50 nM Van, respectively. In contrast, the thermodynamic pseudo-equilibrium was achieved within 6 min or less for Van concentrations ≥500 nM. […]

The test system of a further assay is D-VSR. The assay can be described thus: Cantilever binding assay against D-VSR coated cantilevers. How it is done: as §1
(§2) Finally, learning from enantiomeric molecules, although identical in structure and are mirror images of one another with different physical characteristics, could be used to test the impact of the regulatory connectivity networks on the biomechanical forces involved in molecular interactions. So it was inferred that in chiral species the level of complementarity between a drug and its target will lead to different assemblies across the mirror images of the surface receptors and this can be reflected in the distinguishable biomechanical forces. To test this concept the interaction of the D-VSR and its corresponding mirror image (L-VSR) (see, Cantilever functionalization with surface target molecules) with the antibiotic drug vancomycin was studied. D-VSR is an enantiomer predominantly found in bacterial cell walls whereas L-VSR is not produced by bacteria. […] The mechanical response obtained using a high concentration of Van (50 μM) against 100 μm wide parallel transduction arrays of D-VSR and L-VSR was initially tested. […] In contrast the signal response of Van against L-VSR was very small ˜−200 pN, approximately 20 times smaller than with D-VSR (FIG. 5a). The experiment was repeated using a wide range of different concentrations of Van (0.1-1000 μM) on at least four separate chips.
(§3) Functionalized cantilever chips were mounted in a sealed liquid cell environment and a time-multiplexed optical laser readout system (Scentris, Veeco Instruments Inc., Santa Barbara, Calif., USA) was used to measure the cantilever bending. The laser alignment was considered successful if the difference between the minimum and maximum deflection was <5% when the cell temperature was raised by 1° C. for 10 min followed by 10 min cooling to room temperature. […]
(§4) The biomechanical force data from ligand-receptor interactions were measured as follows: sodium phosphate buffer (pH 7.4, 0.1 M) was injected into the cell for either 3 or 10 min to establish a baseline. […] Cantilever bending signals were measured in a fixed temperature-controlled hood at 25° C. using a liquid flow rate of 30-180 μL min^−1. […]

In another assay the test system is L-VSR. Description: Cantilever binding assay against L-VSR coated cantilevers. To be noted: for biomechanical force / signal response: 50 μM ligand, sodium phosphate buffer pH 7.4, L-VSR coated cantilevers; for signal response over concentration range: all concentrations of ligand. How it is done:
as §1, §2, §3, §4

For assay [2] the following is noted: SPR; cited from earlier work. In general terms: In SPR one partner is held on a chip, and binding of the other changes the refractive index at the surface.
The conditions of assay [3]: solution; cited from earlier work.

For orientation: Kd means the constant that tells how readily two partners part at equilibrium. For the molecule `CN[C@H](CC(C)C)C(=O)N[C@H]1C(=O)N[C@@H](CC(N)=O)C(=O)N[C@H]2C(=O)N[C@H]3C(=O)N[C@H](C(=O)N[C@H](C(=O)O)c4cc(O)cc(O)c4-c4cc3ccc4O)[C@H](O)c3ccc(c(Cl)c3)Oc3cc2cc(c3O[C@@H]2O[C@H](CO)[C@@H](O)[C@H](O)[C@H]2O[C@H]2C[C@](C)(N)[C@H](O)[C@H](C)O2)Oc2ccc(cc2Cl)[C@H]1O` [Van, vancomycin], the signal response result is on record as “no signal response” in assay [1] (500 pM Van, 100 μm wide cantilevers) and −120 nm in assay [1] (1 μM Van, conventional 100 μm wide cantilevers). Further, the “mechanical force / signal response” value in assay [1] (500 pM Van, pH 7.4, small sized (70 μm wide) cantilever, three separate cantilevers) is recorded as −400±30 pN. Also, the “Van concentration at which signal response reached a plateau” value in assay [1] (0.0005 μM to 250 μM Van, narrow cantilevers) worked out at 10 µM. In addition, the “time to thermodynamic pseudo-equilibrium signal response” value in assay [1] (20 nM Van) was determined as 60 min; in assay [1] (50 nM Van) it was 50 min. For the same molecule, the biomechanical force response is given as ~−500 pN in assay [1] (20 nM Van, small sized cantilever); ~−1500 pN in assay [1] (50 nM Van, small sized cantilever); ~−3000 pN in assay [1] (500 nM Van, small sized cantilever). Moreover, in assay [1] (1 μM Van, 3 separate small sized cantilevers), the mechanical force response is recorded as ~−5000±400 pN. For the same molecule, the Kd in assay [1] (100 μm and 70 μm cantilevers, read-out: Kd (surface thermodynamic equilibrium dissociation constant, equation (1))) is 500 ± 100 nM; in assay [2], 1000 ± 300 nM; in assay [3], 700 nM. Besides, the “time to thermodynamic pseudo-equilibrium” value in assay [1] (Van concentrations ≥500 nM) is given as ≤ 6 min. For the same molecule, the “reversibility of signal response” value in assay [1] (all concentrations of Van) was “reversible”. Moreover, the results for the “mechanical forces arising from [Van] against VSR (plot)” value in assay [1] (large sized cantilever) and in assay [1] (small sized cantilever) were ~−3800 pN and ~−6900 pN, respectively. The “ratio of signal response D-VSR versus L-VSR” value with D-VSR (50 μM ligand) is “approximately 20 times”. Also, the “ligand concentration at which plateau was reached” value with D-VSR (0.1-1000 μM Van) was 50 µM. Besides, in the assay with L-VSR, the “biomechanical force / signal response” value is ~−200 pN. In the assay with L-VSR, the “signal response over concentration range” value is “only a small signal response”.

Regarding ristocetin, in the assay with D-VSR (50 μM ligand), the “ratio of signal response D-VSR versus L-VSR” value is listed as “approximately 3 times”. Also, the “biomechanical force / mechanical response” value in the assay on D-VSR (50 μM ligand, sodium phosphate buffer pH 7.4, D-VSR coated 100 μm wide cantilevers) is listed as ~−5000 pN. Moreover, in the assay with L-VSR, the “biomechanical force / signal response” value was ~−2000 pN and the “signal response over concentration range” value is recorded as “remained small compared to D-VSR”.
